These results are taken from PubChem BioAssay AID2060502 (Molecular Pharmacology Branch, DTP, NCI, 2025).

pIC50: −log10 of the molar value. Values joined by “and” are separate entries in the source; they are usually repeats but may differ in a detail not shown here. Identical values can stand only once.

The assay relates to 885724-159-R-J1-PDC complex spheroid viability. Nature of the assay: Anticancer human tumor 885724-159-R-J1-PDC patient-derived pancreatic adenocarcinoma cell line growth inhibition [GQUAD]. As to conditions: for viability, T/C: stronger effect = lower value. The source says:
DNA G-quadruplex Stabilizer Agents in Combinations in Complex Spheroids
A high-throughput screen of multi-cell type tumor spheroids was designed to identify active combinations of DNA G-quadruplex stabilizer agents and targeted small molecules. Complex spheroids include a stromal component modeled by human endothelial cells (HUVEC) and fibroblasts modeled by human mesenchymal stem cells (MSCs). The concentration ranges selected for each drug and investigational agent were based upon clinically achievable concentrations if the clinical Cmax of the agent was known.
Compounds. The drugs and investigational agents: pidnarulex (CX-5461; NSC782164), APTO-253 (NSC789042), BRACO-19 (NSC847499), peposertib (NSC802822), ceralasertib (NSC780249), elimusertib (NSC800525), camonsertib (NSC841442), AZD-1390 (NSC803789), olaparib (NSC753686), talazoparib (NSC767125), ART-558 (NSC835418), sotorasib (NSC818433), MRTX-1133 (NSC836407), SN-38 (NSC673596), topotecan (NSC609699), etoposide (NSC141540), doxorubicin (NSC123127), gemcitabine (NSC613327), 5-fluorouracil (NSC19893), paclitaxel (NSC125973), vemurafenib (NSC761431), panobinostat (NSC761190), R-306465 (JNJ-16241199; NSC773264), adavosertib (NSC754352), TP-3654 (NSC805149), carboplatin (NSC241240), KSQ-4279 (NSC840948), and staurosporine (NSC755774) were obtained from the National Cancer Institute (NCI) Developmental Therapeutics Program Chemical Repository (34). The FDA-approved anticancer drug set is available from the NCI Developmental Therapeutics Program. […] The stock solutions were prepared in dimethyl sulfoxide (DMSO, Sigma-Aldrich, St. Louis, MO, cat. D2650) at 800-fold the tested concentration and stored at -70 degrees C prior to their use. All drugs and investigational agents were tested over a range starting from a high concentration at or near the clinical Cmax and decreasing in half-log increments. If the clinical Cmax for an agent had not been determined, the highest concentration tested was 10 microM.
2.3 Cell Culture. All cells were maintained in an incubator at 37 degrees C and 5% CO2 with 95% humidity. The PDC lines were cultured according to standard operating procedures established by the NCI PDMR. All PDCs were thawed and cultured in Matrigel-coated flasks prepared with a working solution of 1X Ham's F-12 nutrient mix, without supplementation (Invitrogen, cat. 11765054), 100 U/mL penicillin-streptomycin (Invitrogen, cat. 15140122), and 2.5% Matrigel (Corning Inc., cat. 354248) for the first three passages. The 857933-349-R-J2-PDC line was cultured in 6C/Colon 1B media, which includes advanced DMEM/F-12 (Thermo Fisher Scientific, cat. 12634028), 10 mM HEPES (Thermo Fisher Scientific, cat. 15630080), 1X GlutaMAX supplement (Thermo Fisher Scientific, cat. 35050061), 0.1 mg/mL primocin (InvivoGen, cat. ant-pm-2), 10% defined fetal bovine serum, heat inactivated (HyClone Laboratories Inc., cat. SH30070.03HI), 50% L-WRN conditioned media (ATCC, cat. CRL-3276), 1.25 mM N-Acetyl-L-cysteine (Sigma-Aldrich, cat. A9165), 10 mM nicotinamide (Sigma-Aldrich, cat. N0636), 1X B-27 supplement (Thermo Fisher Scientific, cat. 17504044), 1X N-2 supplement (Thermo Fisher Scientific, cat. 17502048), 10 microM Y-27632 dihydrochloride (Tocris Bioscience, cat. 1254), and 50 ng/mL human EGF recombinant protein (Thermo Fisher Scientific, cat. PHG0311). The 485176-168-R4-J1-PDC line was cultured in Panc media, which includes all 6C/Colon 1B media components plus 100 ng/mL human FGF-10 (Thermo Fisher Scientific, cat. 100-26), 500 nM SB-431542 (Selleckchem, cat. S1067), and gastrin (Tocris, cat. 3006).
[…]
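Also: spheroids exposed to agents for seven days before readout.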
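For viability, T/C in this document: percent of vehicle control viability where 100% = DMSO wells.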

As a reminder, the viability, T/C is the ratio of treated to control. Broadly, the pIC50 is the negative decadic logarithm of the IC50, by convention in mol/L. `Cn1ncnc1[C@H]1c2n[nH]c(=O)c3cc(F)cc(c23)N[C@@H]1c1ccc(F)cc1`: the viability, T/C by setting is: (compound 0.000999 µM) 93.4% and 97.4% and 94.5%; (compound 0.00316 µM) 108% and 94.8% and 82.2%; (compound 0.00999 µM) 87.3% and 97.6% and 97.2%; (compound 0.0316 µM) 92.5% and 97.9% and 93.9%; (compound 0.0999 µM) 88.5% and 97.7% and 103%; (compound 0.316 µM) 89.2% and 88% and 94.4%. Besides, the pIC50 (curve of compound) is below 6.50.
As to `Nc1ccn(C2OC(CO)C(O)C2(F)F)c(=O)n1` (stereo not drawn), the viability, T/C by setting is: (compound 0.0316 µM) 94.4% and 88% and 85.7%; (compound 0.1 µM) 93.7% and 90.3% and 81.5%; (compound 0.316 µM) 74.7% and 78.5% and 86.1%; (compound 1 µM) 73.9% and 75.2% and 79.9%; (compound 3.16 µM) 80.9% and 58.4% and 67%; (compound 10 µM) 69% and 61% and 68.9%. Also, the pIC50 (curve of compound) is below 5.00.
Regarding `CC[C@@]1(O)C(=O)OCc2c1cc1n(c2=O)Cc2cc3c(CN(C)C)c(O)ccc3nc2-1`, the viability, T/C reads like this: (compound 0.000999 µM) 86.3% and 93.6% and 89.6%; (compound 0.00316 µM) 104% and 87.4% and 88.3%; (compound 0.00999 µM) 99.2% and 92.9% and 93%; (compound 0.0316 µM) 80.8% and 92.5% and 101%; (compound 0.0999 µM) 85.6% and 74.7% and 90.8%; (compound 0.316 µM) 74.5% and 64.7% and 71.3%. The pIC50 (curve of compound) was below 6.50.
`CC1COCCN1c1cc(C2(O)CC3CCC(C2)O3)c2cnn(-c3ccn[nH]3)c2n1` (stereo not drawn) + CN(C)c1ccc(Nc2c3ccc(NC(=O)CCN4CCCC4)cc3nc3cc(NC(=O)CCN4CCCC4)ccc23)cc1: the pIC50 is 5.83 (curve of first compound, second compound 0.0316 µM); 5.85 (curve of first compound, second compound 0.1 µM); 6.31 (curve of first compound, second compound 0.316 µM); 6.06 (curve of first compound, second compound 1 µM); 6.54 (curve of first compound, second compound 3.16 µM); 6.35 (curve of first compound, second compound 10 µM). For the same compound, the viability, T/C was 89% (second compound 0.0316 µM, first compound 0.0316 µM); 74% (second compound 0.0316 µM, first compound 0.1 µM); 69.3% (second compound 0.0316 µM, first compound 0.316 µM); 53.1% (second compound 0.0316 µM, first compound 1 µM); 41.6% (second compound 0.0316 µM, first compound 3.16 µM); 33.9% (second compound 0.0316 µM, first compound 10 µM). Moreover, the viability, T/C (second compound 0.1 µM, first compound 0.0316 µM) is 95.4%; the viability, T/C (second compound 0.1 µM, first compound 0.1 µM) is 83.8%; the viability, T/C (second compound 0.1 µM, first compound 0.316 µM) was 61.5%; the viability, T/C (second compound 0.1 µM, first compound 1 µM) is 55.8%; the viability, T/C (second compound 0.1 µM, first compound 3.16 µM) is 42.8%; the viability, T/C (second compound 0.1 µM, first compound 10 µM) was 36.8%. Moreover, the viability, T/C by setting is: (second compound 0.316 µM, first compound 0.0316 µM) 80.9%; (second compound 0.316 µM, first compound 0.1 µM) 83.5%; (second compound 0.316 µM, first compound 0.316 µM) 55.4%; (second compound 0.316 µM, first compound 1 µM) 46.4%; (second compound 0.316 µM, first compound 3.16 µM) 44.9%; (second compound 0.316 µM, first compound 10 µM) 33%. In addition, the viability, T/C runs as follows: (second compound 1 µM, first compound 0.0316 µM) 74.9%; (second compound 1 µM, first compound 0.1 µM) 62.5%; (second compound 1 µM, first compound 0.316 µM) 65.1%; (second compound 1 µM, first compound 1 µM) 45.6%; (second compound 1 µM, first compound 3.16 µM) 39.9%; (second compound 1 µM, first compound 10 µM) 32.6%. Also, the viability, T/C runs as follows: (second compound 3.16 µM, first compound 0.0316 µM) 80.9%; (second compound 3.16 µM, first compound 0.1 µM) 65.4%; (second compound 3.16 µM, first compound 0.316 µM) 47.6%; (second compound 3.16 µM, first compound 1 µM) 38.4%; (second compound 3.16 µM, first compound 3.16 µM) 33.4%; (second compound 3.16 µM, first compound 10 µM) 29.5%. The viability, T/C (second compound 10 µM, first compound 0.0316 µM) was 70.2%; the viability, T/C (second compound 10 µM, first compound 0.1 µM) was 66.7%; the viability, T/C (second compound 10 µM, first compound 0.316 µM) was 49.6%; the viability, T/C (second compound 10 µM, first compound 1 µM) is 42.4%; the viability, T/C (second compound 10 µM, first compound 3.16 µM) was 35.6%; the viability, T/C (second compound 10 µM, first compound 10 µM) is 23.3%.
